Test results: ChEMBL document CHEMBL1142108, “Carbamidocyclophanes A-E, chlorinated paracyclophanes with cytotoxic and antibiotic activity from the Vietnamese cyanobacterium Nostoc sp” (J Nat Prod, 2007)
pIC50: −log10 of the molar value. Converted amounts (≈) assume the structure as drawn.

Key:
Staphylococcus aureus = assay: Antibacterial activity against Staphylococcus aureus ATCC 6538; type: functional
[1] = Cytotoxicity against human F1 cells after 48 hrs; type: cell-based; conditions: F1, 48 h
MCF7 = assay: Cytotoxicity against MCF7 cells after 48 hrs; type: cell-based; conditions: Homo sapiens, MCF7, 48 h

Row | SMILES | MIC (Staphylococcus aureus) [µM] | pIC50 [1] | pIC50 (MCF7)
1 | C[C@H]1CCCCC(CCCCCl)c2c(O)cc(cc2O)[C@H](OC(N)=O)[C@@H](C)CCCCC(CCCC(Cl)Cl)c2c(O)cc(cc2O)[C@@H]1OC(N)=O (some centres undefined) [CARBAMIDOCYCLOPHANE B] | 40 (≈ 31 µg/mL) | 5.38 | 5.74
2 | CCCCC1CCCC[C@H](C)[C@@H](OC(N)=O)c2cc(O)c(c(O)c2)C(CCCC(Cl)Cl)CCCC[C@H](C)[C@@H](OC(N)=O)c2cc(O)c1c(O)c2 (some centres undefined) [CARBAMIDOCYCLOPHANE C] | 60 (≈ 44.4 µg/mL) | 5.29 | 5.66
3 | C[C@H]1CCCCC(CCCC(Cl)Cl)c2c(O)cc(cc2O)[C@H](OC(N)=O)[C@@H](C)CCCCC(CCCC(Cl)Cl)c2c(O)cc(cc2O)[C@@H]1OC(N)=O (some centres undefined) [CARBAMIDOCYCLOPHANE A] | 100 (≈ 80.9 µg/mL) | 5.48 | 6.07
